# Measured values published in publication PMC5655689, “Therapeutic potential of the phosphino Cu(I) complex (HydroCuP) in the treatment of solid tumors” (Scientific Reports, 2017).
# Values joined by “and” are separate entries in the source; they are usually repeats but may differ in a detail not shown here. Identical values can stand only once.
# How the values were obtained:
# [1] = system: HCT-15 human colon cancer spheroids; experiment: 3D spheroid cell viability, acid phosphatase (APH) assay, HCT-15; type: cell-based; conditions: HCT-15 spheroids, 72 h
# Method: (§1) In order to improve the predictive capacity of the in vitro assays, we tested HydroCuP activity in two 3D cell cultures of human colon cancer cells, HCT-15 and LoVo. The colon cancer spheroids were treated with HydroCuP for 72 h and the cell viability was assessed by means of the acid phosphatase (APH) assay (Fig. 1, panel A).
# (§2) Figure 1 Activity in 3D cell cultures. (A) Spheroids (2.5 × 10^3 cells/well) were treated for 72 h with increasing concentrations of tested compounds. The growth inhibitory effect was evaluated by means of APH test. IC50 values were calculated from the dose-survival curves by four parameter logistic model (P < 0.05). SD = standard deviation.
# (§3) Spheroids were initiated in liquid overlay by seeding 2.5 × 10^3 HCT-15 and LoVo cells/well in phenol red-free RPMI-1640 medium (Sigma Chemical Co.), containing 10% FCS and supplemented with 20% methyl cellulose stock solution. A total of 150 μl of this cell suspension was transferred to each well of a round bottom non-tissue culture treated 96 well-plate (Greiner Bio-one, Kremsmünster, Austria) to allow spheroid formation within 72 h.
# (§4) A modified APH assay, which is based on quantification of cytosolic acid phosphatase activity, was used for determining cell viability in spheroids. Briefly, the pre-seeded spheroids were treated with fresh medium containing the compound to be studied at the appropriate concentration (range 5–150 μM). Triplicate cultures were established for each treatment. After 72 h, each well was treated with 100 μL of the assay buffer (0.1 M sodium acetate, 0.1% Triton-X-100, supplemented with ImmunoPure p-nitrophenyl phosphate; Sigma Chemical Co.) and, following 3 h of incubation, 10 μL of 1 M NaOH solution were added. The inhibition of the cell growth induced by the tested complexes was detected by measuring the absorbance of each well at 405 nm, using a Bio-Rad 680 microplate reader. Mean absorbance for each drug dose was expressed as a percentage of the control untreated well absorbance (T/C) and plotted vs drug concentration. IC50 values, the drug concentrations that reduce the mean absorbance at 405 nm 50% of those in the untreated control wells, were calculated by four-parameter logistic (4-PL) model. Evaluation was based on means from at least four independent experiments.
# [2] = system: LoVo human colon cancer spheroids; experiment: 3D spheroid cell viability, acid phosphatase (APH) assay, LoVo; type: cell-based; conditions: 72 h
# Method: as §1, §2, §3, §4
# [3] = system: Lewis Lung Carcinoma (LLC); experiment: In vivo antitumor activity towards Lewis Lung Carcinoma (LLC) implanted i.m. in C57BL mice; design: species or system mouse; conditions: for Average tumor weight (mean ± S.D., g) / Inhibition of tumor growth (%): day 15
# Method: The schedule of HydroCuP administration in vivo was initially determined by assessing the total dose that could be injected without undue toxicity for different schedules in nontumor-bearing C57BL mice (data not shown). […] Three schedules of i.p. HydroCuP were administered: early treatment (days 3, 5, 7 and 9 after tumor inoculum), intermediate treatment (days 7–14) and late treatment with split-doses (days 9–11 with a loading dose and days 12–14 with a lower maintenance dose). […] Cisplatin treatment schedule was selected according to standard protocols designed to optimize its efficacy and minimize the occurrence of adverse events. For the early treatment, control mice received the vehicle (0.9% NaCl). HydroCuP was dosed at 25, 35 and 50 mg/kg i.p. on days 3, 5, 7, 9, 11 and 13 after tumor implantation. Cisplatin was dosed at 1.5 mg/kg i.p. on days 3, 5, 7, 9, 11 and 13 after tumor implantation.
# The mice were purchased from Charles River, Italy, housed in steel cages under controlled environmental conditions (constant temperature, humidity, and 12 h dark/light cycle), and alimented with commercial standard feed and tap water ad libitum. The LLC cell line was purchased from ECACC, United Kingdom. The LLC cell line was maintained in DMEM (Euroclone, Pero, Italy) supplemented with 10% heat-inactivated foetal bovine serum (Euroclone, Pero, Italy), 10 mM L-glutamine, 100 U/mL penicillin, and 100 µg/mL streptomycin in a 5% CO2 air incubator at 37 °C. The LLC was implanted intramuscularly (i.m.) as a 2 × 10^6 cell inoculum into the right hind leg of 8-week old male and female C57BL mice (24 ± 3 g body weight). The antitumor activity of HydroCuP in LLC tumor model has been investigated by means of different schedules (early treatment, intermediate treatment and late treatment) and compared with that promoted by the reference metallodrug, CDDP. In the early-stage treatment, animals were treated at day 3, 5, 7, 9, 11 and 13 after the tumor cell inoculum with an i.p. injection of HydroCuP (25, 35 and 50 mg/kg), CDDP (1.5 mg/kg) or the vehicle solution (0.9% NaCl).
# In the intermediate treatment, animals were treated after 7 days from tumor implantation (visible tumor) with daily i.p. doses of HydroCuP (30 and 50 mg/kg), CDDP (1.5 mg/kg) or the vehicle solution (0.9% NaCl). In the late treatment, animals were treated after 9 days from tumor implantation (palpable tumor) with i.p. doses of HydroCuP (50 mg/kg) from day 9 to day 11 and with i.p. doses of HydroCuP (30 mg/kg) from day 12 to day 14, or with daily doses of CDDP (1.5 mg/kg) or with the vehicle solution (0.9% NaCl). At day 15, animals were sacrificed, the legs were amputated at the proximal end of the femur, and the inhibition of tumor growth was determined according to the difference in weight of the tumor-bearing leg and the healthy leg of the animals expressed as a percentage referring to the control animals. Body weight was measured every 2 days and was taken as a parameter for systemic toxicity.
# [4] = system: LoVo colorectal oxaliplatin-resistant xenograft; conditions: mouse, in vivo, ip, 30 mg/kg
# Method: (§5) To this aim, we developed the OXP-sensitive and OXP-resistant LoVo xenografts in BALB/c nu/nu mice. […] OXP-sensitive or OXP-resistant LoVo cells (1 × 10^7) were injected in the flank of mice. Once tumor was established (tumor volumes of about 0.4 cm^3, around 14 days after tumor inoculation), mice were randomly divided into six groups (6 animals per group, 8 controls). The HydroCuP-treated groups (6 mice each group) received daily 30 mg/kg by i.p. injection and the OXP-treated group was given 2 mg/kg by i.p. injection. At day 30, animals were sacrificed, and the inhibition of tumor growth was determined (Fig. 4, panel A). Measurements of body weights were recorded from day 14 every 2 days until the experimental endpoint (Fig. 4, panel B).
# (§6) (A) LoVo and LoVo-OXP tumor xenografts in 6-week-old BALB/c nu/nu mice by injecting 1 × 10^7 tumor cells subcutaneously on the left dorsal flank. After 24 h from tumor implantation, mice randomly divided into six groups (6 animals per group). Chemotherapy delayed until day 14 (tumor volumes of about 0.4 cm^3). From day 14, HydroCuP dosed daily at 30 mg/kg i.p., OXP dosed daily at 2 mg/kg i.p. At day 30, animals sacrificed, and the inhibition of tumor growth determined by comparing the volume of the control group and the treatment group expressed as percentage referred to the control animals. Error bars indicate the S.D. *p < 0.05, **p < 0.01, with respect to control. […] Body weight was measured every two days and was taken as a parameter of systemic toxicity. The error bars indicate the S.D. **P < 0.01; *P < 0.05.
# (§7) LoVo and LoVo-OXP tumor xenografts were established in 6-week-old BALB/c nu/nu mice by injecting 1 × 10^7 tumor cells subcutaneously (100 μL in serum free medium) on the left dorsal flank. After 24 h from tumor implantation, mice were randomly divided into six groups (6 animals per group, 8 controls). Chemotherapy was delayed until the tumor was about 0.4 cm^3 (day 14). From day 14, HydroCuP was dosed daily at 30 mg/kg i.p. whereas OXP was dosed daily at 2 mg/kg i.p. Measurements of body weights and tumor volumes were recorded from day 14 every 2 days until the experimental endpoint. The long axis (L) and the short axis (S) were measured with callipers, and the tumor volume (V) was calculated using the following equation: V = SxSxL/2. At day 30, animals were sacrificed, and the inhibition of tumor growth was determined by comparing the volume of the control group and the treatment group expressed as percentage referred to the control animals.
# [5] = system: 2D human cancer cell cultures; design: method as in PMID 18251492, PMID 21388518; conditions: cited from earlier work
# [6] = system: LoVo colorectal oxaliplatin-sensitive xenograft; experiment: In vivo activity toward LoVo (OXP-sensitive) tumor xenograft in BALB/c nu/nu mice; conditions: 30 mg/kg daily i.p. from day 14, day 30
# Method: as §5, §6, §7
# [7] = system: LoVo colorectal oxaliplatin-resistant xenograft; experiment: In vivo activity toward LoVo-OXP (OXP-resistant) tumor xenograft in BALB/c nu/nu mice; conditions: 30 mg/kg daily i.p. from day 14, day 30
# Method: as §5, §6, §7
# [8] = Early treatment, 35 mg/kg i.p. days 3, 5, 7, 9, 11, 13
# [9] = Early treatment, 50 mg/kg i.p. days 3, 5, 7, 9, 11, 13
smiles,measurement,setting,value
"F[P-](F)(F)(F)(F)F.OC[P+](CO)(CO)[Cu-3]([P+](CO)(CO)CO)([P+](CO)(CO)CO)[P+](CO)(CO)CO [HydroCuP, [Cu(thp)4][PF6]]",IC50 fold lower than CDDP,[1],about 2.5
same,IC50,"[1]; APH test, read-out: IC50 (μM) ± SD HCT-15",27 ± 4.25 µM
same,IC50 fold lower than CDDP,[2],about 2.5
same,IC50,"[2]; APH test, read-out: IC50 (μM) ± SD LoVo",23.3 ± 3.2 µM
same,"Average tumor weight (mean ± S.D., g)","[3]; Early treatment, 25 mg/kg i.p. days 3, 5, 7, 9, 11, 13",0.473 ± 0.12 g
same,Inhibition of tumor growth (%),"[3]; Early treatment, 25 mg/kg i.p. days 3, 5, 7, 9, 11, 13, 25 mg/kg",26% and 25.86%
same,"Average tumor weight (mean ± S.D., g)",[3]; [8],0.273 ± 0.04 g
same,Inhibition of tumor growth (%),[3]; [8],57.21%
same,"Average tumor weight (mean ± S.D., g)",[3]; [9],0.113 ± 0.04 g
same,Inhibition of tumor growth (%),[3]; [9],82.28%
same,Body weight changes,"[3]; Early treatment, LLC-bearing C57BL mice, 15 days",did not induce significant body weight loss
same,"Average tumor weight (mean ± S.D., g)","[3]; Intermediate treatment, 30 mg/kg daily i.p. day 7-14",0.088 ± 0.03 g
same,Inhibition of tumor growth (%),"[3]; Intermediate treatment, 30 mg/kg daily i.p. day 7-14, 30 mg/kg",82% and 82.37%
same,"Average tumor weight (mean ± S.D., g)","[3]; Intermediate treatment, 50 mg/kg daily i.p. day 7-14",0.071 ± 0.02 g
same,Inhibition of tumor growth (%),"[3]; Intermediate treatment, 50 mg/kg daily i.p. day 7-14, 50 mg/kg",85% and 85.85%
same,Body weight loss,"[3]; Intermediate treatment, LLC-bearing C57BL mice",< 10%
same,"Average tumor weight (mean ± S.D., g)","[3]; Late treatment, 50 mg/kg (days 9-11) then 30 mg/kg (days 12-14) daily i.p.",0.024 ± 0.03 g
same,Body weight changes / adverse effects,"[3]; Late treatment, LLC-bearing C57BL mice",did not induce any adverse effects including significant body weight loss
same,Body weight and health vs control group,[4],No significant difference in body weight
same,Fold more cytotoxic than CDDP,[5],up to 50
same,Fold more cytotoxic than OXP,[5],≤ 30
same,Inhibition of tumor growth (decrease in final tumor volume),[6],about 65%
same,Inhibition of tumor growth (decrease in final tumor volume),[7],about 65%
